Patent US10973784B2, “Compositions and methods for treating Alzheimer's disease and Parkinson's disease” (Biotie Therapies, Inc., priority 2016, dated 2021)
Values joined by “and” are separate entries in the source; they are usually repeats but may differ in a detail not shown here. Equal values may be shown once. Read-outs that look alike come from different tables or passages of the source.

Key:
5-HT2C receptor = molecular target: T1, 5-HT2C receptor (Homo sapiens, UniProt P28335); details: cited from earlier work
T1 sequence (P28335 33-458): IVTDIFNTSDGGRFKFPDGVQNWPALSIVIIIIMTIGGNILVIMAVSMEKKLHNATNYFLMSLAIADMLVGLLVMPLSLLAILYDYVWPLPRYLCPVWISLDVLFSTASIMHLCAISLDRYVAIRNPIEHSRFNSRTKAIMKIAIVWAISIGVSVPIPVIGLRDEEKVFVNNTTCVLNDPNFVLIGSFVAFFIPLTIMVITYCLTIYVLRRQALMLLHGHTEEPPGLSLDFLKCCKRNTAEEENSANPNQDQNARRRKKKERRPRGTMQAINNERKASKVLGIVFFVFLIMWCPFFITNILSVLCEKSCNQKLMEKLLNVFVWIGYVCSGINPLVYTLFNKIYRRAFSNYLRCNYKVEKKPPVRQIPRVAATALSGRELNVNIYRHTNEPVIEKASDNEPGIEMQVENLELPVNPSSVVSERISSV

5-HT6 receptor = 5-HT6 receptor (Homo sapiens, UniProt P50406); details: cited from earlier work
5-HT2A receptor = 5-HT2A receptor (Homo sapiens, UniProt P28223); details: cited from earlier work
[1] = Plasma concentrations of SYN120 at 100 mg QD after titration (Example 10); format: in vivo, human; details: for Plasma concentration of SYN120, individual samples: 100 mg QD after titration; for Plasma concentration of SYN120, Max / Plasma concentration of SYN120, Median / Plasma concentration of SYN120, Min / Plasma concentration of SYN120, Mean: 100 mg QD
Protocol: Patients taking SYN120 are titrated from a starting dose of 20 mg SYN120 QD for the first 7 days, followed by 50 mg SYN120 QD for the next 7 days, then 100 mg SYN120 QD for the remaining portion of the study. Plasma samples are taken on study weeks 4, 8 and 16, and a shown below in Table 17.

[2] = Pharmacokinetic analysis of SYN120 tablets, single oral dose (Example 8); format: in vivo, human; details: human, plasma
Protocol: Pharmacokinetic (PK) analysis was performed on 42 subjects (36 males; 6 females) who received SYN120 oral tablets. In this study, subjects received a single oral dose of SYN120 at one of the following doses: 2 mg; 10 mg; 30 mg; 100 mg; 300 mg; and 600 mg. The SYN120 oral tablets used in this study were formulated for immediate release at tablet strengths of 2 mg, 10 mg, and 50 mg. The tablets were formulated using lactose monohydrate, corn starch, sodium starch glycolate, povidone, sodium lauryl sulfate, magnesium stearate, and the coating agent Opadry Yellow. Blood samples were collected at predose and 0.5, 1, 1.5, 2, 3, 4, 6, 8, 12, 16, 24, 32, 36, 48, and 72 hours postdose. During the treatments at 100 mg and higher, the protocol was amended to include an additional blood sample on Study Day 7 (nominal time of 151 hours). Following oral administration, SYN120 absorption was rapid and plasma levels were measurable in all subjects at the first time point (0.5 hours).
Table 14 below provides a summary of the mean PK parameters of plasma SYN120 for all doses.

[3] = female, oral, 100 mg single dose, females, arithmetic mean
[4] = female, single oral dose 100 mg (females), Cohort E, geometric mean

Sequence of 5-HT6 receptor (P50406 whole entry): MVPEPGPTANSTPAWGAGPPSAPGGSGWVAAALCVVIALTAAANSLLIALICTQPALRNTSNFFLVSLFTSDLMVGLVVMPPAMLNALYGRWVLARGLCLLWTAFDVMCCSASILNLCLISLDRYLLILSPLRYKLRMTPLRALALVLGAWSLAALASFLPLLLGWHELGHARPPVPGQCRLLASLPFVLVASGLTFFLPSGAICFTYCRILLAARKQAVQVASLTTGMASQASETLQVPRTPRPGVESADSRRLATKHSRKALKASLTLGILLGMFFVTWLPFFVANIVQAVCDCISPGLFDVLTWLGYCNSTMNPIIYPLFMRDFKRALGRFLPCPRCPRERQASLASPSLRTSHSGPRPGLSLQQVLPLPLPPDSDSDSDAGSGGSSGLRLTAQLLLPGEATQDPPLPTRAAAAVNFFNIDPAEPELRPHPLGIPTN
Sequence of 5-HT2A receptor (P28223 whole entry): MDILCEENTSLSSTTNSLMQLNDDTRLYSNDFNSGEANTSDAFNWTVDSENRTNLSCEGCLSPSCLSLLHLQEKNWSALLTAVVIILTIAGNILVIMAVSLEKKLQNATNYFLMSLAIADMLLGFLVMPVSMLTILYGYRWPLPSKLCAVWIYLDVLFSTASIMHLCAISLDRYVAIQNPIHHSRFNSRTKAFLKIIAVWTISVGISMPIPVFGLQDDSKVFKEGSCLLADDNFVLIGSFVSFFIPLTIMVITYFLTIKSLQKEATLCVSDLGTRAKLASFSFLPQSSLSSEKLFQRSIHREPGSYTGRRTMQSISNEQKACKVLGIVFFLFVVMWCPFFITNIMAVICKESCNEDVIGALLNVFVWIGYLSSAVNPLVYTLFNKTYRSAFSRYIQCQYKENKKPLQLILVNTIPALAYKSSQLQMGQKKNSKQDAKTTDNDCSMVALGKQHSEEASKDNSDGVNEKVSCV

NC(=O)NC[C@@H]1CCCc2cc(S(=O)(=O)c3cccc(F)c3)ccc21 [SYN120]
pKi (5-HT2C receptor): 8.1 | pKi (5-HT6 receptor): 9.6 | pKi (5-HT2A receptor): 7.8 | Plasma concentration of SYN120, individual samples ([1]; time range 0.5 h-1.5 h): 1310 ng/mL and 297 ng/mL and 116 ng/mL and 476 ng/mL and 326 ng/mL and 8.57 ng/mL and 309 ng/mL | Plasma concentration of SYN120, individual samples ([1]; time range 1.5 h-2.5 h): 120 ng/mL and 558 ng/mL and 314 ng/mL and 705 ng/mL and 229 ng/mL and 235 ng/mL and 430 ng/mL and 581 ng/mL | Plasma concentration of SYN120, individual samples ([1]; time range 2.5 h-3.5 h): 1660 ng/mL and 355 ng/mL and 473 ng/mL and 410 ng/mL and 1220 ng/mL and 1620 ng/mL and 767 ng/mL | Plasma concentration of SYN120, individual samples ([1]; time range 3.5 h-4.5 h): 1330 ng/mL and 855 ng/mL and 24.2 ng/mL and 467 ng/mL and 1190 ng/mL and 1470 ng/mL | Plasma concentration of SYN120, individual samples ([1]; time range 4.5 h-7.5 h): 1160 ng/mL and 124 ng/mL and 344 ng/mL and 989 ng/mL and 1210 ng/mL and 850 ng/mL | Plasma concentration of SYN120, Max ([1]; time range 0.5 h-1.5 h): 1310 ng/mL | Plasma concentration of SYN120, Median ([1]; time range 0.5 h-1.5 h): 309 ng/mL | Plasma concentration of SYN120, Min ([1]; time range 0.5 h-1.5 h): 8.57 ng/mL | Plasma concentration of SYN120, Mean ([1]; time range 0.5 h-1.5 h, n 7): 406.1 ng/mL | Plasma concentration of SYN120, Max ([1]; time range 1.5 h-2.5 h): 705 ng/mL | Plasma concentration of SYN120, Median ([1]; time range 1.5 h-2.5 h): 372 ng/mL | Plasma concentration of SYN120, Min ([1]; time range 1.5 h-2.5 h): 120 ng/mL | Plasma concentration of SYN120, Mean ([1]; time range 1.5 h-2.5 h, n 8): 396.5 ng/mL | Plasma concentration of SYN120, Max ([1]; time range 2.5 h-3.5 h): 1660 ng/mL | Plasma concentration of SYN120, Median ([1]; time range 2.5 h-3.5 h): 767 ng/mL | Plasma concentration of SYN120, Min ([1]; time range 2.5 h-3.5 h): 355 ng/mL | Plasma concentration of SYN120, Mean ([1]; time range 2.5 h-3.5 h, n 7): 929.3 ng/mL | Plasma concentration of SYN120, Max ([1]; time range 3.5 h-4.5 h): 1470 ng/mL | Plasma concentration of SYN120, Median ([1]; time range 3.5 h-4.5 h): 1023 ng/mL | Plasma concentration of SYN120, Min ([1]; time range 3.5 h-4.5 h): 24.2 ng/mL | Plasma concentration of SYN120, Mean ([1]; time range 3.5 h-4.5 h, n 6): 889.4 ng/mL | Plasma concentration of SYN120, Max ([1]; time range 4.5 h-7.5 h): 1210 ng/mL | Plasma concentration of SYN120, Median ([1]; time range 4.5 h-7.5 h): 920 ng/mL | Plasma concentration of SYN120, Min ([1]; time range 4.5 h-7.5 h): 124 ng/mL | Plasma concentration of SYN120, Mean ([1]; time range 4.5 h-7.5 h, n 6): 779.5 ng/mL | time of peak plasma level after administration ([1]; once per day maintenance dosing): 1 to 4 h | half-life ([2]; both sexes, oral, range across single-dose treatment groups, read-out: mean apparent elimination half-life): 8.45 to 12.4 h | Tmax ([2]; both sexes, oral, single doses of 100 mg and above, read-out: Tmax estimates): ~4 h | AUC(0-t) ([2]; female, oral, 100 mg, 100 mg single dose, females, arithmetic mean, read-out: AUC0-24): 4670 ± 2990 ng·h/mL | AUC(0-t) ([2]; female, oral, 100 mg, 100 mg single dose, females, arithmetic mean, read-out: AUC0-t): 5960 ± 3650 ng·h/mL | AUC(0-inf) [2, 3]: 5980 ± 3660 ng·h/mL | Cmax [2, 3]: 532 ± 218 ng/mL | AUC(0-t) ([2]; female, po, 100 mg, single oral dose 100 mg (females), Cohort E, geometric mean, read-out: AUC0-24): 4000 ng·h/mL | AUC(0-t) ([2]; female, po, 100 mg, single oral dose 100 mg (females), Cohort E, geometric mean, read-out: AUC0-t): 5100 ng·h/mL | half-life ([2]; female, single oral dose 100 mg (females), Cohort E, arithmetic mean ±SD, read-out: t1/2 (converted)): 12.4 h | AUC(0-inf) [2, 4]: 5120 ng·h/mL | Cmax [2, 4]: 498 ng/mL | Tmax ([2]; female, single oral dose 100 mg (females), Cohort E, median, read-out: Tmax): 2.51 h | half-life ([2]; oral, general statement, read-out: elimination half-life (t1/2)): 8 to 12 h | Tmax ([2]; oral, single dose 2 to 30 mg, on average, read-out: Tmax): ~2 h | AUC(0-t) ([2]; po, 2 mg, single oral dose 2 mg, Cohort A, geometric mean, read-out: AUC0-24): 118 ng·h/mL | AUC(0-t) ([2]; po, 2 mg, single oral dose 2 mg, Cohort A, geometric mean, read-out: AUC0-t): 139 ng·h/mL | AUC(0-t) ([2]; po, 10 mg, single oral dose 10 mg, Cohort B, geometric mean, read-out: AUC0-24): 351 ng·h/mL | AUC(0-t) ([2]; po, 10 mg, single oral dose 10 mg, Cohort B, geometric mean, read-out: AUC0-t): 384 ng·h/mL | AUC(0-t) ([2]; po, 30 mg, single oral dose 30 mg, Cohort C, geometric mean, read-out: AUC0-24): 1540 ng·h/mL | AUC(0-t) ([2]; po, 30 mg, single oral dose 30 mg, Cohort C, geometric mean, read-out: AUC0-t): 1750 ng·h/mL
